Measured values from patent publication US9394297B2, “Amides as pim inhibitors” (AMGEN INC., priority 2012, dated 2016).
Where a name gives a salt, the structure may show the parent alone. Read-outs that look alike come from different tables or passages of the source.

Experiments:
Pim-2 = Pim-2 (Homo sapiens (Human), UniProt Q9P1W9); assay: Pim-Mn enzyme assay (HTRF, 384-well), Pim-2; format: biochemical; conditions: read-out: Pim-2-Mn IC50 IP
KMS-12-BM cell lines = assay: KMS12 #2 flow cytometry assay (phospho-BAD Ser112); format: cell-based; conditions: Homo sapiens, 110 min; KMS-12-BM cells, pBAD Ser112 by flow cytometry, 110 min with compound; read-out: KMS-12-Flow IC50 IP
Pim-1 = Pim-1 (Homo sapiens (Human), UniProt P11309); assay: Pim-Mn enzyme assay (HTRF, 384-well), Pim-1; format: biochemical; conditions: read-out: Pim-1-Mn IC50 IP
[1] = Pim-2 enzyme 0.5 pM, ATP 1.5 μM, BAD (S112) 0.5 μM, HTRF, 22-point curve
[2] = Pim-1 enzyme 5 pM, ATP 1.5 μM, BAD (S112) 0.5 μM, HTRF, 22-point curve

Sequence of Pim-1 (P11309 whole entry): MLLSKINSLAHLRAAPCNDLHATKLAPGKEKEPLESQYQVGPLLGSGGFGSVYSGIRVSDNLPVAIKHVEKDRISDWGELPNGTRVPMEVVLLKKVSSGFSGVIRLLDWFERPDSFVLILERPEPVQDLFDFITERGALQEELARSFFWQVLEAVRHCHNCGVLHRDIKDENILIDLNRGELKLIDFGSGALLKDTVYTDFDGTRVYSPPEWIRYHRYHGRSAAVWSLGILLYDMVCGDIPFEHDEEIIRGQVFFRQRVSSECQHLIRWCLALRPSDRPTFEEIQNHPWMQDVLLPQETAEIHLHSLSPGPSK
Sequence of Pim-2 (Q9P1W9 whole entry): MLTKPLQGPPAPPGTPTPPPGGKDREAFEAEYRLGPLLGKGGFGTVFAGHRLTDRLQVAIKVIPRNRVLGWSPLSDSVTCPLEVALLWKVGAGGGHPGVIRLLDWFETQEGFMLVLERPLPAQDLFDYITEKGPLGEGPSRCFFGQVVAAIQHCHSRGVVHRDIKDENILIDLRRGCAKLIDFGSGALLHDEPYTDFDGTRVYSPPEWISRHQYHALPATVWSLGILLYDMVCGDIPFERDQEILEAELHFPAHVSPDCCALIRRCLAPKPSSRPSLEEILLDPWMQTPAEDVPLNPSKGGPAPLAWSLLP

Structure (SMILES) | IC50 (Pim-2; [1]) | IC50 (KMS-12-BM cell lines) | IC50 (Pim-1; [2]) | IC50 (Pim-2) | IC50 (Pim-1)
Cc1nc2ccc(F)c(-c3cc4c([nH]3)CNC4=O)c2nc1NC(C)(C)C [Example 296, 2-(3-(tert-butylamino)-6-fluoro-2-methyl-5-quinoxalinyl)-5,6-dihydropyrrolo[3,4-b]pyrrol-4(1H)-one] | 0.501 nM | 36.2 nM | 0.508 nM | – | –
Cc1nc2cccc(-c3cc4c([nH]3)[C@@H](C)NC4=O)c2nc1O[C@H](C)C(F)(F)F [Example 453, (6R)-6-methyl-2-(2-methyl-3-((1R)-2,2,2-trifluoro-1-methylethoxy)-5-quinoxalinyl)-5,6-dihydropyrrolo[3,4-b]pyrrol-4(1H)-one] | 258 nM | > 40000 nM | 37.5 nM | – | –
Cc1nc2cccc(-c3cc4c([nH]3)C(C)(C)NC4=O)c2nc1NC(C)(C)C [Example 466, 2-(3-(tert-butylamino)-2-methyl-5-quinoxalinyl)-6,6-dimethyl-5,6-dihydropyrrolo[3,4-b]pyrrol-4(1H)-one] | – | 75.5 nM | – | 1.93 nM | 2.28 nM
Cc1nc2ccc(F)c(-c3cc4c([nH]3)CCNC4=O)c2nc1NC(C)C [Example 373, 2-(6-fluoro-3-(isopropylamino)-2-methylquinoxalin-5-yl)-6,7-dihydro-1H-pyrrolo[3,2-c]pyridin-4(5H)-one 2,2,2-trifluoroacetate] | 1.63 nM | 94.3 nM | 1.8 nM | – | –
CC(C)Nc1nc2c(-c3cc4c([nH]3)CCNC4=O)cccc2c(=O)n1-c1ccccn1 [Example 415, 2-((1-methylethyl)amino)-8-(4-oxo-4,5,6,7-tetrahydro-1H-pyrrolo[3,2-c]pyridin-2-yl)-3-(2-pyridinyl)-4(3H)-quinazolinone] | 29.4 nM | 5860 nM | 10.9 nM | – | –
Cc1nc2cccc(-c3cc4n(c3)C(=O)NC4)c2nc1NC(C)(C)C [Example 421, 6-(3-(tert-butylamino)-2-methylquinoxalin-5-yl)-1H-pyrrolo[1,2-c]imidazol-3(2H)-one] | 189 nM | 21200 nM | 86 nM | – | –
Cc1nc2cccc(-c3cc4c([nH]3)C3(CC3)NC4=O)c2nc1NC1(C)CC1 [Example 329, 2′-(2-methyl-3-((1-methylcyclopropyl)amino)-5-quinoxalinyl)-1′H-spiro[cyclopropane-1,6′-pyrrolo[3,4-b]pyrrol]-4′(5′H)-one] | – | 26.2 nM | – | 0.39 nM | 0.334 nM
Cc1nc2cccc(-c3cc4c([nH]3)[C@@H](C)NC4=O)c2nc1NC(C)(C)CO [Example 302, (6R)-2-(3-((2-hydroxy-1,1-dimethylethyl)amino)-2-methyl-5-quinoxalinyl)-6-methyl-5,6-dihydropyrrolo[3,4-b]pyrrol-4(1H)-one] | – | 71.2 nM | – | 1.45 nM | 1.84 nM
Cc1nc2ccc(F)c(-c3cc4c(=O)[nH]ccc4[nH]3)c2nc1NC(C)(C)C [Example 371, 2-(3-(tert-butylamino)-6-fluoro-2-methylquinoxalin-5-yl)-1H-pyrrolo[3,2-c]pyridin-4(5H)-one 2,2,2-trifluoroacetate salt] | – | 148 nM | – | 0.0667 nM | 0.246 nM
Cc1nc2ccc(F)c(-c3cc4c([nH]3)[C@@H]([C@H](C)O)NC4=O)c2nc1NC1CC1 [Example 353, (6S)-2-(3-(cyclopropylamino)-6-fluoro-2-methyl-5-quinoxalinyl)-6-((1S)-1-hydroxyethyl)-5,6-dihydropyrrolo[3,4-b]pyrrol-4(1H)-one] | 2.3 nM | 109 nM | 2.26 nM | – | –
Cc1nc2cccc(-c3cc4c([nH]3)C3(CC3)NC4=O)c2nc1NCC(F)F [Example 331, 2′-(3-((2,2-difluoroethyl)amino)-2-methylquinoxalin-5-yl)-1′H-spiro[cyclopropane-1,6′-pyrrolo[3,4-b]pyrrol]-4′(5′H)-one] | 1.12 nM | 130 nM | 1.67 nM | – | –
Cc1nc2cccc(-c3cc4c([nH]3)C3(CC3)NC4=O)c2nc1NC(C)(C)C [Example 324, 2′-(3-(tert-butylamino)-2-methyl-5-quinoxalinyl)-1′H-spiro[cyclopropane-1,6′-pyrrolo[3,4-b]pyrrol]-4′(5′H)-one] | – | 91.7 nM | 0.139 nM | 0.223 nM | –
Cc1nc2cccc(-c3cc4c([nH]3)C(COCc3ccccc3)NC4=O)c2nc1NC1(C)CC1 (stereo not drawn) [Example 355, 6-((benzyloxy)methyl)-2-(2-methyl-3-((1-methylcyclopropyl)amino)quinoxalin-5-yl)-5,6-dihydropyrrolo[3,4-b]pyrrol-4 (1H)-one] | 1.86 nM | 2430 nM | – | – | 1.79 nM

Further lines, with some results ahead:

IC50 (Pim-2; [1]) | IC50 (KMS-12-BM cell lines) | IC50 (Pim-1; [2]) | Structure (SMILES) | IC50 (Pim-2) | IC50 (Pim-1)
0.53 nM | 67.1 nM | 0.414 nM | Cc1nc2cccc(-c3cc4c([nH]3)[C@@H](CO)NC4=O)c2nc1NC1(C)CC1 [Example 361, (S)-6-(hydroxymethyl)-2-(2-methyl-3-((1-methylcyclopropyl)amino)quinoxalin-5-yl)-5,6-dihydropyrrolo[3,4-b]pyrrol-4 (1H)-one] | – | –
16.4 nM | > 40000 nM | 11.5 nM | CC(C)Nc1nc2c(-c3cc4c([nH]3)CCNC4=O)cccc2c(=O)n1-c1cccnc1 [Example 403, 2-((1-methylethyl)amino)-8-(4-oxo-4,5,6,7-tetrahydro-1H-pyrrolo[3,2-c]pyridin-2-yl)-3-(3-pyridinyl)-4(3H)-quinazolinone] | – | –
20.1 nM | > 40000 nM | 27.9 nM | CC(=O)Nc1nc2c(-c3cc4c([nH]3)CCNC4=O)cccc2nc1C [Example 445, N-(3-methyl-8-(4-oxo-4,5,6,7-tetrahydro-1H-pyrrolo[3,2-c]pyridin-2-yl)quinoxalin-2-yl)acetamide] | – | –
1.47 nM | 572 nM | 0.839 nM | Cc1nc2cccc(-c3cc4c([nH]3)CCCC4=O)c2nc1NC(C)(C)C [Example 303, 2-(3-(tert-butylamino)-2-methylquinoxalin-5-yl)-6,7-dihydro-1H-indol-4(5H)-one] | – | –
8.58 nM | 6730 nM | 9.48 nM | Cc1nc2cccc(-c3cc4c(n3C)CCNC4=O)c2nc1NC(C)(C)C [Example 314, 2-(3-(tert-butylamino)-2-methylquinoxalin-5-yl)-1-methyl-6,7-dihydro-1H-pyrrolo[3,2-c]pyridin-4(5H)-one] | – | –
272 nM | > 40000 nM | 176 nM | Cc1nccn1-c1cnc2cccc(-c3cc4c([nH]3)CCNC4=O)c2n1 [Example 320] | – | –
0.162 nM | 11.5 nM | 0.184 nM | Cc1nc2ccc(F)c(-c3cc4c([nH]3)CCNC4=O)c2nc1NC1(C)CC1 [Example 369, 2-(6-fluoro-2-methyl-3-((1-methylcyclopropyl)amino)quinoxalin-5-yl)-6,7-dihydro-1H-pyrrolo[3,2-c]pyridin-4(5H)-one 2,2,2-trifluoroacetate] | – | –
2.26 nM | 558 nM | 2.12 nM | CC(C)(C)Nc1nc2c(-c3cc4c([nH]3)CCNC4=O)cccc2nc1CO [Example 306, 2-(3-(tert-butylamino)-2-(hydroxymethyl)quinoxalin-5-yl)-6,7-dihydro-1H-pyrrolo[3,2-c]pyridin-4(5H)-one] | – | –
8.9 nM | 2350 nM | 9.23 nM | COC1=NCCc2[nH]c(-c3cccc4nc(C)c(NC(C)(C)C)nc34)cc21 [Example 351, N-tert-butyl-8-(4-methoxy-6,7-dihydro-1H-pyrrolo[3,2-c]pyridin-2-yl)-3-methyl-2-quinoxalinamine] | – | –
14.7 nM | 1360 nM | 9.94 nM | COCCOCC(C)(C)Nc1nc2c(-c3cc4c([nH]3)CCNC4=O)cccc2nc1C [Example 317, 2-(3-((2-(2-methoxyethoxy)-1,1-dimethylethyl)amino)-2-methyl-5-quinoxalinyl)-1,5,6,7-tetrahydro-4H-pyrrolo[3,2-c]pyridin-4-one] | – | –
0.874 nM | 1000 nM | 0.625 nM | Cc1nc2cccc(-c3[nH]c4c(c3Br)C(=O)NCC4)c2nc1NC(C)(C)C [Example 349, 3-bromo-2-(3-(tert-butylamino)-2-methyl-5-quinoxalinyl)-1,5,6,7-tetrahydro-4H-pyrrolo[3,2-c]pyridin-4-one] | – | –
82.1 nM | > 40000 nM | 82.4 nM | Cc1nc2cccc(-c3cc4c([nH]3)CCNC4=O)c2nc1-c1ccccc1 [Example 424, 2-(2-Methyl-3-phenylquinoxalin-5-yl)-6,7-dihydro-1H-pyrrolo[3,2-c]pyridin-4(5H)-one] | – | –
0.195 nM | 123 nM | 0.271 nM | CCc1nc2cccc(-c3cc4c([nH]3)CCNC4=O)c2nc1NC(C)(C)C [Example 312, 2-(3-(tert-butylamino)-2-ethylquinoxalin-5-yl)-6,7-dihydro-1H-pyrrolo[3,2-c]pyridin-4(5H)-one] | – | –
3.62 nM | 769 nM | 2.54 nM | CC(C)(C)Nc1ncc2cccc(-c3cc4c([nH]3)CCNC4=O)c2n1 [Example 374, 2-(2-(tert-butylamino)quinazolin-8-yl)-6,7-dihydro-1H-pyrrolo[3,2-c]pyridin-4(5H)-one] | – | –
0.429 nM | 87.6 nM | 0.791 nM | CC(C)(C)Nc1nc2c(-c3cc4c([nH]3)CCNC4=O)cccc2nc1N [Example 304, 2-(2-amino-3-(tert-butylamino)quinoxalin-5-yl)-6,7-dihydro-1H-pyrrolo[3,2-c]pyridin-4(5H)-one] | – | –
2.78 nM | 1770 nM | 2.33 nM | CC(C)(C)Nc1nc2c(-c3cc4c([nH]3)CCNC4=O)cccc2nc1F [Example 343, 2-(3-(tert-butylamino)-2-fluoro-5-quinoxalinyl)-1,5,6,7-tetrahydro-4H-pyrrolo[3,2-c]pyridin-4-one] | – | –
